Reference: US7838490B2, “Methods and compositions for inhibition of vascular permeability” (University of Virginia Patent Foundation, priority 2005, dated 2010)

Experiments:
Erk [1] = assay: Erk activation in BAECs (Western blotting, immunostaining); format: cell-based, bovine; details: 20 μg/ml peptide or 25 μM U0126 for 1 hour; for immunostaining for activated Erk: then 25 ng/ml VEGF 30 minutes; for activation of Erk by VEGF (Western blotting): then VEGF 30 min
Procedure: After 1 hour, 25 ng/ml VEGF was added for 30 minutes. Cells were then fixed and stained for activated Erk.
B. Cells as in A were extracted and analyzed for Erk phosphorylation by Western blotting.
D. BAECs were incubated with peptides and stimulated with VEGF as in C, then lysed and analyzed for Erk activation by Western blotting.
Coverslips were washed and mounted using FluoroMount (Invitrogen).

[2] = tested on: mice exposed to aerosolized LPS; assay: LPS-induced pulmonary microvascular permeability (Evans blue dye extravasation)
Procedure: B. Mice inhaled LPS with control or Nck blocking peptide as in A. At 6 hours, they were injected with Evans blue dye and leakage into the lung assayed at 1 h.
B. Mice received intraperitoneal injections with the indicated amounts of the PIX blocking or control peptides. They were treated with aerosolized LPS for 6 h then leakage of Evans blue dye into the lung assayed as described in Methods.
Wild type male mice (C57B1/6, 8 to 12 weeks of age, Jackson Labs, Bar Harbor, Me.) were exposed to aerosolized LPS (Salmonella enteritidis, Sigma Co., St. Louis, Mo.) for 30 min. […] Control animals inhaled saline. Some mice received intraperitoneal (ip) injection of the PAK inhibitory or control peptides 30 min prior to treatment. […] Permeability was analyzed at 6 h using the Evans blue dye extravasation technique (Green et al., 1988). Briefly, Evans blue (20 mg/kg; Sigma) was injected intravenously 30 minutes prior to euthanasia. Lungs were perfused through the spontaneously beating right ventricle to remove intravascular dye. Lungs were removed and Evans blue was extracted as described (Peng et al., 2004). The absorption of Evans blue was measured at 620 nm and corrected for the presence of heme pigments: A620 (corrected)=A620−(1.426×A740+0.030) (Wang le et al., 2002). Extravasated Evans blue was calculated against a standard curve (micrograms Evans blue dye per gram lung).

Erk [3] = assay: phospho-Erk staining of lung sections from LPS-treated mice; format: in vivo; details: 6 h, peptides 1 mg, UO126 0.5 ml of 70 μM
Procedure: A. Mice were injected with Nck-blocking peptide (1 mg; comprising SEQ ID NO:7), control peptide (1 mg) or UO126 (0.5 ml of 70 μM), then treated with or without LPS as in FIG. 1. At 6 hours, the lungs were removed, sectioned, and stained for activated Erk using pT202/pY204 antibody. Small arrows indicate unidentified cells in control lungs that stain positively. Large arrows indicate conduit blood vessels.
C. Lungs from mice pretreated with 1 mg/ml PIX blocking peptide and exposed to LPS as in FIG. 3A were stained for phospho-Erk. […] Arrow indicates a conduit vessel.
Control animals inhaled saline.
Mouse lungs were inflated with an intratracheal instillation of PFA 4% at a constant pressure (20 cm H2O) for 15 minutes. Next, lungs were removed and fixed in PFA 4% for 24 h and embedded in paraffin. Sections (5 μm) were cut for IHC and treated with antigen unmasking solution (Vector Laboratories). Sections were stained with monoclonal rabbit anti p-ERK (1:400 Cell Signaling) overnight and detected with Vectastain Elite Kit (Vector Laboratories). Visualization was done with DAB (Dako Corp) and couterstained with hematoxylin. Images were acquired using 20 or 40× objective on a microscope (model BX51; Olympus) equipped with a digital camera (model DP70 Olympus) using ImagePro software program.

HUVECs = assay: In vitro permeability: HRP leakage across HUVEC monolayer; format: cell-based, human; details: peptide 20 μg/ml, not shown
Procedure: B. HUVECs were transfected with siRNA oligonucleotides specific to GIT1 or with control, scrambled siRNA. Total cell lysates at 72 hours were analyzed for GIT1 expression by Western blotting (top). Cells on filters were analyzed for permeability to HRP after treatment with VEGF (50 ng/ml), histamine (10 μM) or thrombin (0.2 U/ml).
The βPIX and GIT1 constructs were obtained from Dr. A. F. Horwitz. The ΔGBD βPIX (mutated for GIT1 binding) and ΔSHD mutant of GIT1 (mutated for PIX and MEK binding) were as described (Zhang et al., 2003). Dominant negative MEK1 was as described (Renshaw et al., 1997). GIT1 Smartpool siRNA oligos against human sequence were obtained from Dharmacon and the experiments were carried out in HUVECs. The Smartpool mixture contained 4 different siRNA oligos. The four different sense sequences are:
BAECs on FN-coated 3 μm filters at near-confluence were transfected with 0.5 μg cDNA using Effectene as described above. At 48 h, cells were pre-treated for 60 min with PAK peptides as indicated. For some experiments, cells were nucleofected, then plated on filters and grown to confluence for 48 hr. Filters were then placed in outer wells with 500 μl fresh DMEM without phenol red or serum. To each filter well was added 200 μl medium plus 50 μl of 1.5 μg/ml horseradish peroxidase (HRP) with or without cytokines as described. […]

BAECs = assay: In vitro permeability: HRP leakage across BAEC monolayer on 3 μm filters; format: cell-based; details: bovine endothelial cells; peptide 20 μg/ml
Procedure: C. […] Cells were left untreated or stimulated for […] with 25 ng/ml VEGF, 50 ng/ml bFGF, or 10 μM histamine. Leakage of horseradish peroxidase (HRP) across the filter was assayed as described in Methods.
A. BAECs on filters with 3.0 μm pores were pretreated with 20 μg/ml PIX blocking or control peptides for 1 hour, then stimulated with VEGF for 30 minutes. HRP movement across the monolayer was assayed as described in Methods.
BAECs on FN-coated 3 μm filters at near-confluence were transfected with 0.5 μg cDNA using Effectene as described above. At 48 h, cells were pre-treated for 60 min with PAK peptides as indicated. For some experiments, cells were nucleofected, then plated on filters and grown to confluence for 48 hr. Filters were then placed in outer wells with 500 μl fresh DMEM without phenol red or serum. To each filter well was added 200 μl medium plus 50 μl of 1.5 μg/ml horseradish peroxidase (HRP) with or without cytokines as described. After 30 min, filters were removed and fixed, and the medium in the lower wells assayed for HRP as described (Stockton et al., 2004). Values were normalized to control, untreated wells.

βPIX = target: T1, βPIX (Homo sapiens, UniProt Q14155); assay: Pull-down from cell lysates with biotin-tagged peptides on streptavidin beads; format: binding; details: Western blotting
T1 construct: expressed in transfected cells
T1 sequence (Q14155 1-646 isoform Q14155-1): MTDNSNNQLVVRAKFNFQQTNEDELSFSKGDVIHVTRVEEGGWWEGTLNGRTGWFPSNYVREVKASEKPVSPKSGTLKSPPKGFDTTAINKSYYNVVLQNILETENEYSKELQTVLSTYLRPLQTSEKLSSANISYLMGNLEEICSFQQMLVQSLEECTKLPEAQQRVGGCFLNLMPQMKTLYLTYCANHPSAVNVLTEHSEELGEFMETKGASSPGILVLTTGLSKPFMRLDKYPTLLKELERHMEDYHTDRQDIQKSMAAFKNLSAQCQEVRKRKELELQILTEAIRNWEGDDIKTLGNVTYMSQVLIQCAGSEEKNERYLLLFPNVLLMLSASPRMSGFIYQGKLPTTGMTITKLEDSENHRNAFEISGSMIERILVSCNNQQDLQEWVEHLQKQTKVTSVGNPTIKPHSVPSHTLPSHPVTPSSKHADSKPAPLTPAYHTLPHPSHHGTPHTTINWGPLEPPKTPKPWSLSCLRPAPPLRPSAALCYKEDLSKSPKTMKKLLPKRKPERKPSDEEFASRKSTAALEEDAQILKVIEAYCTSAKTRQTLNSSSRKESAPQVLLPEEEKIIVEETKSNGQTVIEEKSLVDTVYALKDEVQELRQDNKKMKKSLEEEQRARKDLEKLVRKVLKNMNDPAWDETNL
Procedure: (§1) B. Cell lysates were incubated with peptides immobilized on streptavidin beads and the whole cell lysates (WCL) or bound proteins analyzed by Western blotting.
(§2) Cells were stimulated, washed with cold PBS, extracted with 0.5 ml cold immunoprecipitation (IP) buffer (20 mM Tris pH 7.6, 0.5% NP40, 250 mM NaCl, 5 mM EDTA, 3 mM EGTA; plus Sigma protease and phosphatase inhibitor cocktails) for 10 min. They were passed through an 18 gauge needle 3× and centrifuged for 10 min at 12,000×g in a microfuge. […] Anti-GIT1 and anti-βPIX were from Santa Cruz Biotechnology. […] For binding to peptides, 25 μg of biotin-tagged peptides were incubated with 25 μl of streptavidin beads for 30 min, then rinsed and incubated with 0.5 cell lysates for 30 min. Bound proteins were detected by Western blotting with the indicated antibodies. For βPIX, cells were transfected with HA-PIX and blots probed using anti-HA. Proteins were electrophoretically transferred to PVDF membranes, blocked with 5% milk in Tris-buffered saline (TBS) and probed overnight with primary antibodies in the same buffer. Membranes were washed 4×, probed with secondary antibodies for 2 h, and then visualized using chemiluminescence (ECL, Amersham).

actin cytoskeleton = details: BAECs; 20 μg/ml peptide; bFGF 60 min
Procedure: E. Cells incubated with peptides as in C and stimulated with bFGF for 60 min, then stained for F-actin.
Cells were fixed for 60 minutes in 3.5% formaldehyde, washed, and permeabilized for 10 minutes in 0.2% TX100. Coverslips were blocked with PBS containing 10% goat serum for 60 minutes, then probed 8 hours at 4° C. with 200 μl containing the following antibodies: phospho-ERK at 1:500; phospho-MEK at 1:500; phospho-PAK at 1:500; phospho-MLC at 1:500 (all from BioSource International); βPIX at 1:200 or GIT1 at 1:200 (Santa Cruz Biotechnology). Coverslips were washed and probed overnight at 4° C. with 200 μl anti-mouse IgG-Alexa 568 or anti-rabbit IgG-Alexa 488 (Molecular Probes) at 1:1000. Coverslips were washed and mounted using FluoroMount (Invitrogen).

DOCK180 = target: T2, DOCK180 (Homo sapiens, UniProt Q14185); assay: Pull-down from cell lysates with biotin-tagged peptides on streptavidin beads; format: binding; details: higher amounts of cell lysates; not shown
T2 construct: endogenous in cells

[4] = tested on: interaction between PAK and PIX; details: BAECs, 20 μg/ml peptide 1 h, VEGF 30 min
Procedure: BAECs were incubated with PIX blocking or control peptide at 20 μg/ml for 1 h, then stimulated with VEGF for 30 min. Cells were rinsed, lysed, and βPIX immunoprecipitated. The IP's were analyzed by Western blotting.
Cells were stimulated, washed with cold PBS, extracted with 0.5 ml cold immunoprecipitation (IP) buffer (20 mM Tris pH 7.6, 0.5% NP40, 250 mM NaCl, 5 mM EDTA, 3 mM EGTA; plus Sigma protease and phosphatase inhibitor cocktails) for 10 min. They were passed through an 18 gauge needle 3× and centrifuged for 10 min at 12,000×g in a microfuge. Supernatants were precleared with 25 μl of Protein G-agarose beads and incubated with the indicated primary antibody for 2 hrs at 4°. […] 25 μl of protein A- or protein G-agarose beads were added and incubated for another 2 h while rotating at 4° C. Beads were sedimented and washed 3× with 0.5 ml IP buffer and separated by SDS-PAGE. […] Proteins were electrophoretically transferred to PVDF membranes, blocked with 5% milk in Tris-buffered saline (TBS) and probed overnight with primary antibodies in the same buffer. Membranes were washed 4×, probed with secondary antibodies for 2 h, and then visualized using chemiluminescence (ECL, Amersham).

[5] = tested on: other SH3-containing proteins; details: cell lysates; Western blotting
Procedure: as §1, §2

CD2AP = target: T3, CD2AP (Homo sapiens, UniProt Q9Y5K6); assay: Pull-down from cell lysates with biotin-tagged peptides on streptavidin beads; format: binding; details: higher amounts of cell lysates; not shown
T3 construct: endogenous in cells

cortactin = target: T4, cortactin (Homo sapiens, UniProt Q14247); assay: as above; format: binding; details: Western blotting
T4 construct: endogenous in cells
T4 sequence (Q14247 1-550): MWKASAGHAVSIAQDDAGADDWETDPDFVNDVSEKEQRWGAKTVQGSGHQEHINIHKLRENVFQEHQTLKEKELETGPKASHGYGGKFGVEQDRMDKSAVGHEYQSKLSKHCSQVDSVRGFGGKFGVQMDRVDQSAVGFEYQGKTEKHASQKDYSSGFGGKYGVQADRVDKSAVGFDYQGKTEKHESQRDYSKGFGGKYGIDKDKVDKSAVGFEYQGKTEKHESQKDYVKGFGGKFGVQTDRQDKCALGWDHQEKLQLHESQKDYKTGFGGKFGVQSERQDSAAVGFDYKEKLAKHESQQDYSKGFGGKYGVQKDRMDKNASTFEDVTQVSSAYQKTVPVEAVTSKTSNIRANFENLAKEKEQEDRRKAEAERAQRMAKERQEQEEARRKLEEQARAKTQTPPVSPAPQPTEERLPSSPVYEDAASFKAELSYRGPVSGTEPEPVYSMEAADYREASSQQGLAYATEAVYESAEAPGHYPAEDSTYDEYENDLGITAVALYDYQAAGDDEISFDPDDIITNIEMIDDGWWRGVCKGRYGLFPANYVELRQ
Procedure: as §1, §2

T3 sequence (Q9Y5K6 whole entry, species assumed): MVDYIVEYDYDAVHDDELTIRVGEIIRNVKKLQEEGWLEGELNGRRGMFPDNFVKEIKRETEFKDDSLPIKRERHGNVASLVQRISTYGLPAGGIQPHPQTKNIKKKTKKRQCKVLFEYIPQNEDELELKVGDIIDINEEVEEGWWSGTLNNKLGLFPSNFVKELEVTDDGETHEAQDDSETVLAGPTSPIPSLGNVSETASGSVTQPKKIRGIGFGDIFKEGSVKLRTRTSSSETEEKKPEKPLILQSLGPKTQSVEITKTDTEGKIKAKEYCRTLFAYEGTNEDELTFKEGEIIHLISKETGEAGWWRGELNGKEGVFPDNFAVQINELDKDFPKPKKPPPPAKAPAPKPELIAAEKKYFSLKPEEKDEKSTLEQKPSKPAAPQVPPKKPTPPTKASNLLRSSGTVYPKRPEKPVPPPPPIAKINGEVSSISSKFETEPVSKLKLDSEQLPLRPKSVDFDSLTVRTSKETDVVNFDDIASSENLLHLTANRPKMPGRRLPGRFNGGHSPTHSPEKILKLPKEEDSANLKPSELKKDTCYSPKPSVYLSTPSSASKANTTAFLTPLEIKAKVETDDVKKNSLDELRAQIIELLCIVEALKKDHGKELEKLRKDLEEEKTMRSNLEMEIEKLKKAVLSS

Compound | immunostaining for activated Erk (Erk [1]) | activation of Erk by VEGF (Western blotting) (Erk [1]) | induction of vascular leak by LPS (Evans blue dye) ([2]; 0.5 ml of 70 μM U0126 ip, 6 h) | Erk activation (phospho-Erk staining) in lung sections (Erk [3]) | block of the increase in permeability in vitro in response to VEGF (HUVECs) | block of the increase in permeability in vitro in response to VEGF (BAECs) | binding of βPIX to immobilized peptide (βPIX) | increase in actin stress fibers in response to bFGF or VEGF (actin cytoskeleton) | binding of DOCK180 to immobilized peptide (DOCK180) | amount of PIX in βPIX immunoprecipitates [4] | reduction of PAK in βPIX precipitates ([4]; peptide washed out before lysis) | binding of other SH3-containing proteins to immobilized peptide [5] | binding of CD2AP to immobilized peptide (CD2AP) | binding of cortactin to immobilized peptide (cortactin) | leakage of Evans blue dye into the lung after inhalation of LPS ([2]; 1 mg peptide ip prior to aerosolized LPS, assayed at 6 h)
N#CC(=C(/N)Sc1ccccc1N)/C(C#N)=C(\N)Sc1ccccc1N [U0126, reference compound] | nearly eliminated | blocked | significantly blocked | blocked Erk activation throughout the tissue | – | – | – | – | – | – | – | – | – | – | –
YGRKKRRQRRRGPPPVIAPRPEHTKSVYTR-K+Biotin [PIX-binding peptide] | – | – | – | – | approximately 80% | approximately 80% | bound βPIX with high efficiency | blocked | weak but nonspecific binding | no effect | about 70% | no binding | weak, specific binding | weak but reproducible binding | –
YGRKKRRQRRRGKPPAPPMRNTSTM (listed as Homo sapiens) [Nck-blocking peptide] | decreased phosphoErk at cell-cell borders | blocked | – | largely prevented | – | – | – | – | – | – | – | – | – | – | strongly inhibited
